Data from patent US20220226392A1, “COMPOSITIONS AND PROCESS FOR INTEGRATING CELLS INTO EPITHELIUM” (Medizinische Hochschule Hannover, priority 2019, published 2022).

How the values were obtained:
[1] = system: human umbilical vein endothelial cells; conditions: 10 nM 17β-estradiol; cited from earlier work
[2] = system: uterine human microvascular endothelial cells; conditions: 10 nM 17β-estradiol; cited from earlier work
[3] = system: human primary venous endothelial cells; test: Loosening and regeneration of a confluent endothelial cell monolayer after contact with 17β-estradiol (phase contrast, anti-VE-cadherin and DAPI staining); format: cell-based
Method: As an example for an endothelium, human primary venous endothelial cells were cultivated in EGM-medium under cell culture conditions until reaching confluence. Then, the medium was removed from this exemplary epithelium and replaced by fresh EGM-medium containing 17β-estradiol in a concentration of 1 μM, 10 μM, 30 μM, 100 μM, or 300 μM. The concentrations of 17β-estradiol are also indicated in the rows of FIG. 1. […] Subsequent to the presence of the 17β-estradiol in medium, this first composition was removed and replaced by EGM-medium without added 17β-estradiol, with subsequent incubation for 4 h under cell culture conditions. The result is depicted in FIG. 1 in column C in phase contrast, and in column D after immunological staining for VE-cadherin as an essential component of adherens junctions between cells, and DAPI staining for nuclei.

[4] = system: human primary venous endothelial cells; test: Integration of suspended eGFP-expressing iPSC-derived endothelial cells into an endothelial cell layer pre-treated with 17β-estradiol; format: cell-based
Method: A confluent layer of human primary venous endothelial cells cultivated in EGM-medium was used as a representative for endothelium. This endothelial cell layer was contacted with a first composition containing 17β-estradiol in a concentration yielding 100 μM 17β-estradiol in fresh cell culture medium. After incubating this endothelial cell layer under cell culture conditions for 30 min in the presence of 100 μM 17β-estradiol, the medium was removed and replaced by a suspension of iPSC-derived endothelial cells that were genetically manipulated to constitutively express enhanced green fluorescent green protein (eGFP) in EGM-medium without added 17β-estradiol.

C[C@]12CC[C@@H]3c4ccc(O)cc4CC[C@H]3[C@@H]1CC[C@@H]2O [17β-estradiol]
permeability for FITC-labelled dextran of monolayer [1]: increases the permeability
permeability for FITC-labelled dextran of monolayer [2]: increases the permeability
concentration at which the endothelial layer was loosened, respectively shows disintegration ([3]; 30 min in EGM-medium, tested 1, 10, 30, 100, 300 μM, FIG. 1 columns A, B): at least 10 μM
state of the endothelial layer after removal of 17β-estradiol ([3]; 4 h incubation in EGM-medium without 17β-estradiol after 30 min exposure, VE-cadherin and DAPI staining, FIG. 1 columns C, D): a closed layer of the endothelial cells is re-established
integration of eGFP-labelled endothelial cells of the suspension into the endothelial layer ([4]; 100 μM 17β-estradiol for 30 min, then 4 h incubation with cell suspension without 17β-estradiol, FIG. 2 column B): efficiently integrate between the original endothelial cells
effect on endothelial cell layer and VE-cadherin expression ([4]; 100 μM 17β-estradiol, 30 min, FIG. 2 column A): loosening of the cell layer and loss of VE-cadherin expression
